Laboratory results published in publication PMC12649549, “Sequence Permutation Generated Lysine and Tryptophan-Rich Antimicrobial Peptides with Enhanced Therapeutic Index” (Antibiotics, 2025).
Where two headings read alike, the source gives them in different places.

Columns and labels:
[1] = test system: A. baumannii 14B00100 (Acinetobacter sp., BCRC number 14B0100)
Summary of the method: (§1)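 Broth microdilution per CLSI in Müller-Hinton broth and modified LYM broth (pH 7.4; variants with 50–300 mM NaCl, 0.5–2.5 mM MgCl2, or pH 6.5–4.5). Inoculum 5 × 10^5 CFU/mL; peptides tested at 0.78–50 µg/mL final. MIC read; three independent repeats.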

[2] = test system: A. baumannii 14B0091 (Acinetobacter sp., BCRC number 14B0091)
Summary of the method: as §1

[3] = test system: Escherichia coli (ATCC 25922)
Summary of the method: as §1

S. aureus ATCC 25923 = test system: S. aureus ATCC 25923
Summary of the method: as §1

S. aureus ATCC 33591 = test system: S. aureus ATCC 33591
Summary of the method: as §1

S. aureus ATCC 6538 = test system: S. aureus ATCC 6538
Summary of the method: as §1

Gram-negative bacteria = assay: Geometric mean MIC and therapeutic index, Gram-negative bacteria; format: cell-based; conditions: Gram-negative bacteria
Summary of the method: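 CLSI broth microdilution in Müller-Hinton broth and modified LYM broth (pH 7.4 base; NaCl, MgCl2 and pH varied), 5 × 10^5 CFU/mL inoculum, peptides 0.78–50 µg/mL final. TI = HC10 for human red blood cells divided by geometric mean MIC; three independent repeats.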

[4] = LYM broth, 0 mM NaCl, 16 h, 37 °C
[5] = LYM broth, 50 mM NaCl, 16 h, 37 °C
[6] = LYM broth, 100 mM NaCl, 16 h, 37 °C
[7] = LYM broth, 200 mM (NaCl), 16 h, 37 °C
[8] = LYM broth, 300 mM (NaCl), 16 h, 37 °C
[9] = MH broth, 5 × 10^5 CFU/mL, 16 h, 37 °C, repeated three times

Ac-RKWLKWLAKKKKW-NH2 [Peptide W5K03] gave an MIC [1, 4] of 1.56 µg/mL, an MIC ([1]; LYM broth, 0.5 mM MgCl2) of 3.13 µg/mL and an MIC ([1]; LYM broth, 1.5 mM MgCl2) of 3.13 µg/mL. It also gave an MIC ([1]; LYM broth, 2.5 mM MgCl2) of 3.13 µg/mL, an MIC [1, 5] of 3.13 µg/mL and an MIC [1, 6] of 3.13 µg/mL. The MIC [1, 7] was 6.25 µg/mL, the MIC [1, 8] was 12.5 µg/mL and the MIC ([1]; LYM broth, pH 4.5) was 1.56 µg/mL. The MIC ([1]; LYM broth, pH 5.5) was 1.56 µg/mL, the MIC ([1]; LYM broth, pH 6.5) was 1.56 µg/mL and the MIC [1, 9] was 12.5 µg/mL. It also gave an MIC [2, 4] of 1.56 µg/mL, an MIC ([2]; LYM broth, 0.5 mM MgCl2) of 1.56 µg/mL and an MIC ([2]; LYM broth, 1.5 mM MgCl2) of 3.13 µg/mL. For the same substance, the MIC ([2]; LYM broth, 2.5 mM MgCl2) was 3.13 µg/mL, the MIC [2, 5] was 3.13 µg/mL and the MIC [2, 6] was 3.13 µg/mL. The MIC [2, 7] was 6.25 µg/mL, the MIC [2, 8] was 25 µg/mL and the MIC ([2]; LYM broth, pH 4.5) was 3.13 µg/mL. For the same substance, the MIC ([2]; LYM broth, pH 5.5) was 3.13 µg/mL, the MIC ([2]; LYM broth, pH 6.5) was 1.56 µg/mL and the MIC [2, 9] was 6.25 µg/mL. For the same substance, the MIC [3, 4] was 6.25 µg/mL, the MIC ([3]; LYM broth, 0.5 mM MgCl2) was 12.5 µg/mL and the MIC ([3]; LYM broth, 1.5 mM MgCl2) was 25 µg/mL. It also gave an MIC ([3]; LYM broth, 2.5 mM MgCl2) of 25 µg/mL, an MIC [3, 5] of 25 µg/mL and an MIC [3, 6] of 50 µg/mL. For the same substance, the MIC [3, 7] was over 50 µg/mL, the MIC [3, 8] was over 50 µg/mL and the MIC ([3]; LYM broth, pH 4.5) was 6.25 µg/mL. For the same substance, the MIC ([3]; LYM broth, pH 5.5) was 6.25 µg/mL, the MIC ([3]; LYM broth, pH 6.5) was 3.13 µg/mL and the MIC [3, 9] was 50 µg/mL. The MIC (S. aureus ATCC 25923; [4]) was 6.25 µg/mL, the MIC (S. aureus ATCC 25923; LYM broth, 0.5 mM MgCl2) was 6.25 µg/mL and the MIC (S. aureus ATCC 25923; LYM broth, 1.5 mM MgCl2) was 12.5 µg/mL. It also gave an MIC (S. aureus ATCC 25923; LYM broth, 2.5 mM MgCl2) of 12.5 µg/mL, an MIC (S. aureus ATCC 25923; [5]) of 12.5 µg/mL and an MIC (S. aureus ATCC 25923; [6]) of 25 µg/mL. For the same substance, the MIC (S. aureus ATCC 25923; [7]) was over 50 µg/mL, the MIC (S. aureus ATCC 25923; [8]) was over 50 µg/mL and the MIC (S. aureus ATCC 25923; LYM broth, pH 4.5) was 6.25 µg/mL. For the same substance, the MIC (S. aureus ATCC 25923; LYM broth, pH 5.5) was 3.13 µg/mL, the MIC (S. aureus ATCC 25923; LYM broth, pH 6.5) was 3.13 µg/mL and the MIC (S. aureus ATCC 25923; [9]) was 50 µg/mL. For the same substance, the MIC (S. aureus ATCC 33591; [4]) was 25 µg/mL, the MIC (S. aureus ATCC 33591; LYM broth, 0.5 mM MgCl2) was 25 µg/mL and the MIC (S. aureus ATCC 33591; LYM broth, 1.5 mM MgCl2) was 25 µg/mL. The MIC (S. aureus ATCC 33591; LYM broth, 2.5 mM MgCl2) was 50 µg/mL, the MIC (S. aureus ATCC 33591; [5]) was 50 µg/mL and the MIC (S. aureus ATCC 33591; [6]) was 50 µg/mL. For the same substance, the MIC (S. aureus ATCC 33591; [7]) was over 50 µg/mL, the MIC (S. aureus ATCC 33591; [8]) was over 50 µg/mL and the MIC (S. aureus ATCC 33591; LYM broth, pH 4.5) was 25 µg/mL. It also gave an MIC (S. aureus ATCC 33591; LYM broth, pH 5.5) of 25 µg/mL, an MIC (S. aureus ATCC 33591; LYM broth, pH 6.5) of 12.5 µg/mL and an MIC (S. aureus ATCC 33591; [9]) of over 50 µg/mL. For the same substance, the MIC (S. aureus ATCC 6538; [4]) was 1.56 µg/mL, the MIC (S. aureus ATCC 6538; LYM broth, 0.5 mM MgCl2) was 3.13 µg/mL and the MIC (S. aureus ATCC 6538; LYM broth, 1.5 mM MgCl2) was 3.13 µg/mL. It also gave an MIC (S. aureus ATCC 6538; LYM broth, 2.5 mM MgCl2) of 6.25 µg/mL, an MIC (S. aureus ATCC 6538; [5]) of 3.13 µg/mL and an MIC (S. aureus ATCC 6538; [6]) of 6.25 µg/mL. For the same substance, the MIC (S. aureus ATCC 6538; [7]) was 12.5 µg/mL, the MIC (S. aureus ATCC 6538; [8]) was 25 µg/mL and the MIC (S. aureus ATCC 6538; LYM broth, pH 4.5) was 6.25 µg/mL. The MIC (S. aureus ATCC 6538; LYM broth, pH 5.5) was 3.13 µg/mL, the MIC (S. aureus ATCC 6538; LYM broth, pH 6.5) was 3.13 µg/mL and the MIC (S. aureus ATCC 6538; [9]) was 25 µg/mL. For the same substance, the “GM G− (geometric mean of the MIC values)” value (Gram-negative bacteria; MH broth, MIC >50 µg/mL counted as 100 µg/mL) was 16.5 µg/mL and the “Therapeutic Index (TI) G−” value (Gram-negative bacteria; HC10/GM) was 6.6.
